The results in this text go back to ChEMBL document CHEMBL3232946, “Development of 3,5-dinitrobenzoate-based 5-lipoxygenase inhibitors” (Bioorg Med Chem, 2014).

The target in test [1] is T1, Polyunsaturated fatty acid 5-lipoxygenase (Homo sapiens, UniProt P09917).
T1 sequence (P09917 whole entry): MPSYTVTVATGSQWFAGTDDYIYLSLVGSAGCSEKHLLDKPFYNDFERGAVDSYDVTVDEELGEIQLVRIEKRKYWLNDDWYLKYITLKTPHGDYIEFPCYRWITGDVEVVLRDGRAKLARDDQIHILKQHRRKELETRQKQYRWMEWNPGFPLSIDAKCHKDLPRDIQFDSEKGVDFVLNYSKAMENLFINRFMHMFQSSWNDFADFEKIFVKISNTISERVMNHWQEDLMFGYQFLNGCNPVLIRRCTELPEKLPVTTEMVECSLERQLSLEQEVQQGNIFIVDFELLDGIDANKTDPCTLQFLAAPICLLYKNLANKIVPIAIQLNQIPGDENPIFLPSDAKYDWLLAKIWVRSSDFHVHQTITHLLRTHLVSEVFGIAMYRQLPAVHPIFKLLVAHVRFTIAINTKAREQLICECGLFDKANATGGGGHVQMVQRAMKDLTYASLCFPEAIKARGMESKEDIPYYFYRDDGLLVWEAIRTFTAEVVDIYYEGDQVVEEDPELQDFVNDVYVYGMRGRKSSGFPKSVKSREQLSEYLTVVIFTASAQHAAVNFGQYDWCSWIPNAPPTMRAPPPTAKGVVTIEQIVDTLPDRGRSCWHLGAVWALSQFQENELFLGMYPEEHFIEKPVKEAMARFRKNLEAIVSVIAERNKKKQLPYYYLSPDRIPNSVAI
Nature of the test: Inhibition of 5-LOX in human whole blood assessed as inhibition of A23187-induced LTB4 production preincubated for 15 mins followed by A23187 induction measured after 30 mins by ELISA.

In test [2] the target is T1, Polyunsaturated fatty acid 5-lipoxygenase. The experiment in a line: Inhibition of human 5-LOX using arachidonic acid as substrate preincubated for 10 mins followed by substrate addition by H2DCFDA staining-based fluorometric analysis.

The structures appear in SMILES notation.

In the case of `COc1ccc(NC(=O)c2cc([N+](=O)[O-])cc([N+](=O)[O-])c2)cc1OC`, the IC50 in test [1] was over 50 µM; in test [2], 1100 nM.
On to `O=C(Oc1cccc(-c2ccccc2)c1)c1cc([N+](=O)[O-])cc([N+](=O)[O-])c1`, for which the results for the IC50 in test [1] and in test [2] were 38 µM and 8700 nM, respectively.
In the same order, the values of `O=C(Nc1cccc(Cl)c1)c1cc([N+](=O)[O-])cc([N+](=O)[O-])c1` are over 50 µM and 33 nM.
With `O=C(Oc1cccc2ccccc12)c1cc([N+](=O)[O-])cc([N+](=O)[O-])c1`, in test [2], the IC50 turned out to be 1000 nM.
On to `O=C(Oc1ccccc1)c1cc([N+](=O)[O-])cc([N+](=O)[O-])c1`, for which the concentration for half-maximal inhibition (IC50) in test [1] is 15.8 µM; in test [2] it was 1600 nM.
In the same order, the values of `O=C(Oc1cccc(Cl)c1Cl)c1cc([N+](=O)[O-])cc([N+](=O)[O-])c1` are over 50 µM and over 50000 nM.
The like results for `O=C(Oc1cccc2ccccc12)c1cccc([N+](=O)[O-])c1` were, in that order, 24.6 µM and 7100 nM.
The like results for `O=C(Nc1cccc(Br)c1)c1cc([N+](=O)[O-])cc([N+](=O)[O-])c1` were, in that order, over 50 µM and over 50000 nM.
In the case of `O=C(O)c1cccc(C(=O)Nc2cccc3ccccc23)c1`, the results for the IC50 in test [1] and in test [2] were over 50 µM and over 50000 nM, respectively.
The like results for `O=C(O)c1cccc(C(=O)Nc2ccccc2)c1` were, in that order, over 50 µM and over 50000 nM.
In the same order, the values of `Cc1cccc(OC(=O)c2cc([N+](=O)[O-])cc([N+](=O)[O-])c2)c1` are 0.5 µM and 6 nM.
In the same order, the values of `O=C(Nc1cccc(-c2ccccc2)c1)c1cc([N+](=O)[O-])cc([N+](=O)[O-])c1` are over 50 µM and 30 nM.
As for `O=C(O)c1cccc(C(=O)OCc2ccccc2)c1`, the IC50 in test [1] is over 50 µM; in test [2], over 50000 nM.
In the same order, the values of `COc1ccc(NC(=O)c2cc([N+](=O)[O-])cc([N+](=O)[O-])c2)cc1` are 2.7 µM and 34 nM.
The like results for `O=C(Oc1ccc(-c2ccccc2)cc1)c1cc([N+](=O)[O-])cc([N+](=O)[O-])c1` were, in that order, over 50 µM and over 50000 nM.
The like results for `O=C(Nc1cccc2ccccc12)c1cc([N+](=O)[O-])cc([N+](=O)[O-])c1` were, in that order, over 50 µM and 4 nM.
Turning to `CCCc1cccc(OC(=O)c2cc([N+](=O)[O-])cc([N+](=O)[O-])c2)c1`, the IC50 in test [1] worked out at 6.5 µM; in test [2], 7400 nM.
For `Cc1cccc(NC(=O)c2cc([N+](=O)[O-])cc([N+](=O)[O-])c2)c1`, the figures for the IC50 in test [1] and in test [2] were over 50 µM and 10 nM, respectively.
The like results for `O=C(O)c1cccc(C(=O)Oc2cccc3ccccc23)c1` were, in that order, over 50 µM and over 50000 nM.
In the same order, the values of `O=C(NCc1cccc(Br)c1)c1cc([N+](=O)[O-])cc([N+](=O)[O-])c1` are 14.4 µM and 83600 nM.
The like results for `O=C(Nc1ccccc1)c1cc([N+](=O)[O-])cc([N+](=O)[O-])c1` were, in that order, 15.2 µM and 1800 nM.
